These results are taken from patent US20110092548A1, “METHOD FOR TREATING/PREVENTING DISEASE USING COGNITIVE ABILITY OF CEREBRUM AND PHARMACEUTICAL” (priority 2006, published 2011).

The conditions of data set [1]: cited from earlier work.
For data set [2], the system named is large intestine cancer patients. The data set can be described thus: Treatment of large intestine cancer patients (Example 2). Conditions: Table 2. In kind it is in vivo, human. The text has this:
Next, treatment of 11 large intestine cancer patients is described.
In principle, the same as Example 1.
The following is course of treatment of the large intestine cancer patients.

As to `O=C1O[C@H]([C@@H](O)CO)C(O)=C1O` [vitamin C, ascorbic acid], the stability to heat result in data set [1] (heat) is “weak to heat”. Further, in data set [1] (pH 7.0), the oxidation reduction potential result is reported as “+0.058 V”. Moreover, the Alive or dead result in data set [2] is “Alive”.
